BindingDB's records for doi:10.7270/Q2TX3CTT (Broad Institute, 2010)
Where a name gives a salt, the structure may show the parent alone.

Molecular target: Glycogen synthase kinase-3 beta (Homo sapiens, UniProt P49841)
Test: concentration-response blocking of human GSK3B – biochemical, luminescence, cell-free homogeneous, retest, dose response (AID 434954)

Chain of Glycogen synthase kinase-3 beta (P49841 whole entry): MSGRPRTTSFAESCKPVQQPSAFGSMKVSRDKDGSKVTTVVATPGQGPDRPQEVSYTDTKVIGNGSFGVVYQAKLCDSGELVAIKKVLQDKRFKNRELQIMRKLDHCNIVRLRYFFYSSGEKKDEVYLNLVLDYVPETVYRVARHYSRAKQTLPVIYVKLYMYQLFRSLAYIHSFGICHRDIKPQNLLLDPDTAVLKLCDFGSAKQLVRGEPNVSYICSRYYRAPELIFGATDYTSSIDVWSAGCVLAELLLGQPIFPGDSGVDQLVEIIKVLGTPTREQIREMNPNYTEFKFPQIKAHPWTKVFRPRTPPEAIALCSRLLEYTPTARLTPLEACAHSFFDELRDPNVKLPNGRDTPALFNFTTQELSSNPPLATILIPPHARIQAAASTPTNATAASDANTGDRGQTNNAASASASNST

Compound | EC50
CCCn1nc(NC(=O)C2CCCO2)c2cc3cccc(C)c3nc21 (stereo unspecified) [N-(8-methyl-1-propylpyrazolo[3,4-b]quinolin-3-yl)oxolane-2-carboxamide] | > 300 µM
COc1ccc(-c2nn(-c3ccccc3)cc2CN=O)cc1 [3-(4-methoxyphenyl)-1-phenyl-4-pyrazolecarboxaldehyde oxime] | 0.432 µM
COc1cccc(-c2nnc3sc(C4CCCCC4)nn23)c1 [6-cyclohexyl-3-(3-methoxyphenyl)-[1,2,4]triazolo[3,4-b][1,3,4]thiadiazole] | 16.3 µM
CC1(C)CC(=O)C2C(=NC3=C(C(=O)c4ccccc43)C2c2ccc(O)cc2)C1 (stereo unspecified) [10-(4-hydroxyphenyl)-7,7-dimethyl-5,6,8,10-tetrahydroindeno[1,2-b]quinoline-9,11-dione] | > 300 µM
O=C(OCCN1CCCCC1)c1ccc(O)cc1 [4-hydroxybenzoic acid 2-(1-piperidinyl)ethyl ester] | > 300 µM
CNc1nc(N)c([N+](=O)[O-])c(Nc2ccccc2OC)n1 [N4-(2-methoxyphenyl)-N2-methyl-5-nitro-pyrimidine-2,4,6-triamine] | 3.44 µM
Cc1c(NC(=O)C(C)OC(=O)COc2ccccc2)c(=O)n(-c2ccccc2)n1C (stereo unspecified) [[1-[(1,5-dimethyl-3-oxidanylidene-2-phenyl-pyrazol-4-yl)amino]-1-oxidanylidene-propan-2-yl] 2-phenoxyethanoate] | > 300 µM
COc1ccc(-c2noc(CSc3nnc(-c4ccccc4)n3C)n2)cc1 [3-(4-methoxyphenyl)-5-[(4-methyl-5-phenyl-1,2,4-triazol-3-yl)sulfanylmethyl]-1,2,4-oxadiazole] | > 300 µM
Cc1c(C(=O)NN=Cc2ccccn2)nnn1-c1nonc1N [1-(4-amino-1,2,5-oxadiazol-3-yl)-5-methyl-N-(pyridin-2-ylmethylideneamino)triazole-4-carboxamide] | > 300 µM
CCOc1ccccc1C=NNC(=O)c1nnn(-c2nonc2N)c1CN1CCCCCC1 | 0.105 µM
COc1cccc2c1cc1c(=O)n(CC(=O)NCCCN3CCN(C)CC3)nc(C)n12 | > 300 µM
COc1ccc2nc(NC(=O)C3CCCO3)sc2c1 (stereo unspecified) [N-(6-methoxy-1,3-benzothiazol-2-yl)-2-oxolanecarboxamide] | > 300 µM
O=[N+]([O-])c1cc([N+](=O)[O-])c(N2CCCCCC2)cc1NCCO | 5.63 µM
CCOC(=O)C(C(=O)Nc1ccc(Cl)cc1Cl)C1=NC(C)(C)Cc2ccccc21 (stereo unspecified) | > 300 µM
Cc1c(CN(C)C)c2c(n1C)C(=O)c1ccc(Br)cc1-2 [7-bromo-1-[(dimethylamino)methyl]-2,3-dimethyl-4-indeno[2,3-b]pyrrolone;hydrochloride] | 17.8 µM
CCOc1ccc2nc(NC(=O)CSc3nc(O)c(C#N)c(-c4ccccc4)n3)sc2c1 | 34.2 µM
CCSc1nnc(-c2ccncc2)o1 [4-(5-Ethylsulfanyl-[1,3,4]oxadiazol-2-yl)-pyridine] | > 300 µM
CC1(C)CC(=O)C=C(Nc2ccc(Br)cn2)C1 [3-[(5-bromopyridin-2-yl)amino]-5,5-dimethylcyclohex-2-en-1-one] | > 300 µM
COc1ccc(CN(CC(=O)NCc2ccccc2)C(=O)CCC(=O)Nc2ccccn2)cc1 | > 300 µM
Cc1ccc(C)c(Nc2nc(-c3ccncc3)nc3ccccc23)c1 | > 300 µM
CCOC(=O)c1cnc2ccc(OC)cc2c1NCCc1ccc(OC)c(OC)c1 | > 300 µM
COc1ccc(-c2nc(-c3ccccc3)nc(Cl)c2C#N)cc1 [4-chloranyl-6-(4-methoxyphenyl)-2-phenyl-pyrimidine-5-carbonitrile] | > 300 µM
O=C1C[C@@H](c2ccc(O)cc2)Oc2cc(O)ccc21 [7-Hydroxy-2-(4'-hydroxyphenyl)chroman-4-one] | > 300 µM
Cc1ccc(Nc2nc(NCC3CCCO3)nc(N)c2[N+](=O)[O-])cc1 (stereo unspecified) | 4.95 µM

Compound | EC50
CCOC(=O)CSc1ccc2nnc(-c3ccccc3)n2n1 [ethyl 2-[(3-phenyl-[1,2,4]triazolo[4,3-b]pyridazin-6-yl)sulfanyl]acetate] | 44.6 µM
CC(C)Sc1nc2c(c(=O)[nH]1)C(c1cccs1)C1C(=O)CC(C)(C)CC1=N2 (stereo unspecified) [8,8-dimethyl-2-propan-2-ylsulfanyl-5-thiophen-2-yl-5,7,9,10-tetrahydro-1H-pyrimido[4,5-b]quinoline-4,6-dione] | > 300 µM
COc1cccc(C2CC(c3ccc(Cl)cc3)n3nc(N)nc3N2)c1 (stereo unspecified) [7-(4-chlorophenyl)-5-(3-methoxyphenyl)-1,5,6,7-tetrahydro-[1,2,4]triazolo[1,5-a]pyrimidin-2-amine] | > 300 µM
N#Cc1c(-c2ccc(F)cc2)nc(-c2ccccc2)[nH]c1=O | > 300 µM
COCc1c(C(=O)NN=Cc2ccccn2)nnn1-c1nonc1N | > 300 µM
Cc1cc(N2CCC(C)CC2)nc(-c2ccccc2O)n1 [(6E)-6-[6-methyl-4-(4-methyl-1-piperidinyl)-1H-pyrimidin-2-ylidene]-1-cyclohexa-2,4-dienone] | > 300 µM
O=C(/[O+]=N/[CH-]c1ccc(N2CCCCC2)c([N+](=O)[O-])c1)c1cccc(Cl)c1 [[(3-nitro-4-piperidin-1-yl-phenyl)methylideneamino] 3-chloranylbenzoate] | > 300 µM
CCSc1ccc2nnc(-c3cccs3)n2n1 [6-ethylsulfanyl-3-thiophen-2-yl-[1,2,4]triazolo[4,3-b]pyridazine] | 11.3 µM
NC(=O)c1ncn([C@@H]2O[C@H](CO)[C@@H](O)[C@H]2O)c1O [1-[(2R,3R,4S,5R)-5-(hydroxymethyl)-3,4-bis(oxidanyl)oxolan-2-yl]-5-oxidanyl-imidazole-4-carboxamide] | > 300 µM
O=C1NC(c2cccs2)Nc2sc3c(c21)CCCC3 (stereo unspecified) [2-thiophen-2-yl-2,3,5,6,7,8-hexahydro-1H-[1]benzothiolo[2,3-d]pyrimidin-4-one] | > 300 µM
COC(=O)c1ccc2nc(NC(=O)C3CC3)sc2c1 [2-(cyclopropanecarbonylamino)-1,3-benzothiazole-6-carboxylic acid methyl ester] | > 300 µM
CCc1ccc(Oc2ncnc(N)c2[N+](=O)[O-])cc1 [6-(4-ethylphenoxy)-5-nitro-4-pyrimidinamine] | > 300 µM
O=C1N=C(S)SC1=Cc1ccc(N2CCOCC2)o1 | 8.5 µM
Cc1ccccc1-c1nc(CN2CCC(C(=O)N3CCN(c4ccccn4)CC3)CC2)c(C)o1 [[1-[[5-methyl-2-(2-methylphenyl)-4-oxazolyl]methyl]-4-piperidinyl]-[4-(2-pyridinyl)-1-piperazinyl]methanone] | > 300 µM
COc1cccc(Nc2nc(-c3ccccc3)nc3ccccc23)c1 | > 300 µM
Cc1cccc(OCc2nnc(SCC(=O)Nc3sc(C)c(C)c3C#N)n2C)c1 [N-(3-cyano-4,5-dimethylthiophen-2-yl)-2-[[4-methyl-5-[(3-methylphenoxy)methyl]-1,2,4-triazol-3-yl]sulfanyl]acetamide] | > 300 µM
Cc1c(C(=O)OCc2ccccc2)nnn1-c1nonc1N [(phenylmethyl) 1-(4-azanyl-1,2,5-oxadiazol-3-yl)-5-methyl-1,2,3-triazole-4-carboxylate] | 7.34 µM
O=C(NCCCN1CCCCC1)c1ccc2c(c1)NC(=O)C(N1CCCCC1)S2 (stereo unspecified) [3-oxo-2-piperidin-1-yl-N-(3-piperidin-1-ylpropyl)-4H-1,4-benzothiazine-6-carboxamide] | > 300 µM
Cc1ccc(CNc2nc(N)c([N+](=O)[O-])c(NCCO)n2)cc1 | 117 µM
COc1ccc(OCCCC(=O)NCc2ccco2)cc1 [N-Furan-2-ylmethyl-4-(4-methoxy-phenoxy)-butyramide] | > 300 µM
Cc1ccc(Nc2nc(N)c([N+](=O)[O-])c(NCc3ccco3)n2)cc1 | 9.2 µM
COc1cccc(-c2c(C(=O)NN=C(C)c3ccncc3)nnn2-c2nonc2N)c1 [1-(4-amino-1,2,5-oxadiazol-3-yl)-5-(3-methoxyphenyl)-N-(1-pyridin-4-ylethylideneamino)-4-triazolecarboxamide] | 19 µM
N#Cc1c(O)nc(SCC(=O)Nc2ccc(OC(F)(F)Cl)cc2)nc1-c1ccccc1 [N-{4-[chloro(difluoro)methoxy]phenyl}-2-[(5-cyano-6-oxo-4-phenyl-1,6-dihydropyrimidin-2-yl)thio]acetamide] | > 300 µM

The remaining lines, values ahead:

EC50 | Compound
> 300 µM | COc1cccc(/C=C2\Sc3ccc(C(=O)NCC4CCCO4)cc3N(C)C2=O)c1 (stereo unspecified) [SMR000622267]
> 300 µM | Cc1ccc(C2c3c(C)noc3N=C3CC(C)(C)CC(=O)C32)cc1 (stereo unspecified) [MLS000568466]
> 300 µM | Cc1nccc(-c2cccc(NC(=O)c3ccccc3Cl)c2)n1 [MLS000859188]
> 300 µM | CCc1nnc(NC(=O)c2cccc(OC)c2)s1 [MLS000104553]
> 300 µM | Cc1ccccc1C(=O)Nc1ccc(O)c2c(=O)cc(-c3ccccc3Cl)oc12 [MLS000518806]
16.7 µM | CCOC(=O)c1cnc2ccc(OC)cc2c1Nc1ccc2c(c1)OCCO2 [SMR000196288]
> 300 µM | COc1cccc(C(=O)C(C#N)=C(SC)SC)c1 [MLS000859112]
57.1 µM | CC1(C)CC(=O)C2C(=Nc3ncnn3C2c2cccs2)C1 (stereo unspecified) [SMR000291528]
21.7 µM | Nc1nc(NCCOCCO)nc(NCc2ccccc2)c1[N+](=O)[O-] [MLS001213400]
58.4 µM | CC(C)=CCc1cc([C@@H]2CC(=O)c3ccc(O)c(CC=C(C)C)c3O2)ccc1O [MLS000697605]
> 300 µM | O=C(Nc1ccnc(-c2cccnc2)n1)c1ccc(Cl)c(Cl)c1 [MLS000327684]
> 300 µM | O=C1N=C(N2CCc3ccccc3C2)S/C1=C\c1ccc(O)cc1 [MLS001043290]
> 300 µM | Cc1ccc(NC(=O)C2CCN(S(=O)(=O)c3ccc4c(c3)NC(=O)C(C)S4)CC2)c(Cl)c1 (stereo unspecified) [SMR000630224]
> 300 µM | O=C(NCCCN1CCCC1=O)c1ccc2c(c1)NC(=O)c1ccccc1S2 [MLS000522698]
> 300 µM | Cc1cc(C)n(S(=O)(=O)c2ccc(C)c(C)c2)n1 [SMR000515396]
> 300 µM | CCOc1ccccc1NC(=O)c1nnn(-c2ccc3c(c2)OCCO3)c1N [MLS001221013]
> 300 µM | CC(C)c1ccc(C(=O)NCCCN2CCN(CCCNC(=O)c3ccc(C(C)C)cc3)CC2)cc1 [SMR000272164]
12.7 µM | COc1ccc2oc3cc(C)[n+]([O-])c(-c4ccc(Cl)cc4)c3c2c1 [MLS000588178]
> 300 µM | O=C(Nc1cccnc1)c1sc(Nc2ccccc2)nc1-c1ccccc1 [SMR000261858]
